Here are results for one compound from ChEMBL document CHEMBL5113503, “Synthesis and biological evaluation of 4-(4-aminophenyl)-6-methylisoxazolo[3,4-b] pyridin-3-amine covalent inhibitors as potential agents for the treatment of acute myeloid leukemia” (Bioorg Med Chem, 2022).

What is called IC50 is the concentration at which inhibition is half-maximal.

Each structure is given as a SMILES string.

One assay relates to MOLM-13. The experiment in a line: Antiproliferative activity against human MOLM-13 cells harboring FLT3-ITD mutant assessed as cell growth inhibition measured after 72 hrs by CCK8 assay. As to conditions: MOLM-13, 72 h. In general terms: Tetrazolium assays rely on reduction of a dye to a coloured formazan, in cell work by metabolically active cells.
The test system of assay [1] is MV4-11. Put plainly: Antiproliferative activity against human MV4-11 cells harboring FLT3-ITD mutant assessed as cell growth inhibition measured after 72 hrs by CCK8 assay. Conditions: MV4-11, 72 h.
In a further assay the test system is A549. The experiment in a line: Antiproliferative activity human A549 cells assessed as cell growth inhibition measured after 72 hrs by CCK8 assay. Conditions: A549, 72 h.
In assay [2] the test system is MV4-11. Put plainly: Induction of cell cycle arrest in human MV4-11 cells assessed as accumulation at G0/G1 phase at 0.1 uM measured after 24 hrs by flow cytometry (reference value: 64.29 %). Format: functional. (A flow cytometer gives signals particle by particle.)
In assay [3] the test system is MV4-11. The experiment in a line: Induction of apoptosis in human MV4-11 cells assessed as viable cells at 2.5 uM measured after 48 hrs by Annexin V-FITC/PI double staining based flow cytometric analysis (reference value: 80.26 %). It counts as functional. Conditions: read-out: Activity.
Assay [4] deals with MV4-11. The experiment in a line: Induction of apoptosis in human MV4-11 cells assessed as early apoptotic cells at 2.5 uM measured after 48 hrs by Annexin V-FITC/PI double staining based flow cytometric analysis (reference value: 2.04 %). It counts as functional.
In assay [5] the test system is MV4-11. The experiment in a line: Induction of apoptosis in human MV4-11 cells assessed as necrotic cells at 2.5 uM measured after 48 hrs by Annexin V-FITC/PI double staining based flow cytometric analysis (reference value: 5.67 %). It counts as functional.
Assay [6] concerns MV4-11. Put plainly: Induction of apoptosis in human MV4-11 cells assessed as late apoptotic cells at 0.5 uM measured after 48 hrs by Annexin V-FITC/PI double staining based flow cytometric analysis (reference value: 12.03 %). It counts as functional.
The target in assay [7] is Receptor-type tyrosine-protein kinase FLT3 (Homo sapiens) (UniProt P36888). The experiment in a line: Inhibition of FLT3 phosphorylation in human MV4-11 cells incubated for 12 hrs by Western blot analysis. Format: cell-based. Conditions: dose 0.1-2.5 µM, DDE = dose-dependent effect. Background: Immunoblotting shows a protein as a band on a membrane.
Sequence of Receptor-type tyrosine-protein kinase FLT3 (Homo sapiens) (P36888 whole entry): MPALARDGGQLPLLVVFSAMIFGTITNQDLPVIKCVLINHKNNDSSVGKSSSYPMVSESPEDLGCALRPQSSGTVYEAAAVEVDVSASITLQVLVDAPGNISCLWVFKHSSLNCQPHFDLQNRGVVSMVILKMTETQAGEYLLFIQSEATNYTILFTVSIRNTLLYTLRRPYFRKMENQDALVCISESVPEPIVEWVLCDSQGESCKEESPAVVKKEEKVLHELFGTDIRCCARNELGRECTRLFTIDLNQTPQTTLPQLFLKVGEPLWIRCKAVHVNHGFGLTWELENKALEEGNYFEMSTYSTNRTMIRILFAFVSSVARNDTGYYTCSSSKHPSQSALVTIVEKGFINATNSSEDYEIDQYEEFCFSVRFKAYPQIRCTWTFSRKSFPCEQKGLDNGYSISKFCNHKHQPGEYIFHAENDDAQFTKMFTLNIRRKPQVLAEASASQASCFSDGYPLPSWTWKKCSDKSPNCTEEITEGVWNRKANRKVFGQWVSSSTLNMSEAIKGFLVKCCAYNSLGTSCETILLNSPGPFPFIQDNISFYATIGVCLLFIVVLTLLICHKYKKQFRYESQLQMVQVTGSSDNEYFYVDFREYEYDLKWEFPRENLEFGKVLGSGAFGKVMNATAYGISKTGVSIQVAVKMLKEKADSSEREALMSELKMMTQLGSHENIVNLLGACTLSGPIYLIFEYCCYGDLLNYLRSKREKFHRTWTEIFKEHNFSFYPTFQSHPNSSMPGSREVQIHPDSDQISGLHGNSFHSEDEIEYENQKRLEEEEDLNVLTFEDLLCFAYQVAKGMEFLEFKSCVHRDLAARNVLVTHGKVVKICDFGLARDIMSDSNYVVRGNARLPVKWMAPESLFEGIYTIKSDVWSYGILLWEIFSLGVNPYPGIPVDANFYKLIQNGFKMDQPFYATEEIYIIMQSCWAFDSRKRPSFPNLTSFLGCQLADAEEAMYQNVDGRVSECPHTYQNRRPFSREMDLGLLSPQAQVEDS
Assay [8] has as its target Serine/threonine-protein kinase AKT (Homo sapiens) (UniProt P31751+Q9Y243+P31749). The experiment in a line: Inhibition of AKT phosphorylation in human MV4-11 cells incubated for 12 hrs by Western blot analysis. Format: cell-based. Conditions: dose 0.1-2.5 µM, DDE = dose-dependent effect.
For assay [9], the system named is MV4-11. Put plainly: Inhibition of ERK phosphorylation in human MV4-11 cells incubated for 12 hrs by Western blot analysis. It counts as cell-based. Conditions: dose 0.1-2.5 µM, DDE = dose-dependent effect.

Sequence of Serine/threonine-protein kinase AKT (Homo sapiens) (P31749 whole entry, looked up): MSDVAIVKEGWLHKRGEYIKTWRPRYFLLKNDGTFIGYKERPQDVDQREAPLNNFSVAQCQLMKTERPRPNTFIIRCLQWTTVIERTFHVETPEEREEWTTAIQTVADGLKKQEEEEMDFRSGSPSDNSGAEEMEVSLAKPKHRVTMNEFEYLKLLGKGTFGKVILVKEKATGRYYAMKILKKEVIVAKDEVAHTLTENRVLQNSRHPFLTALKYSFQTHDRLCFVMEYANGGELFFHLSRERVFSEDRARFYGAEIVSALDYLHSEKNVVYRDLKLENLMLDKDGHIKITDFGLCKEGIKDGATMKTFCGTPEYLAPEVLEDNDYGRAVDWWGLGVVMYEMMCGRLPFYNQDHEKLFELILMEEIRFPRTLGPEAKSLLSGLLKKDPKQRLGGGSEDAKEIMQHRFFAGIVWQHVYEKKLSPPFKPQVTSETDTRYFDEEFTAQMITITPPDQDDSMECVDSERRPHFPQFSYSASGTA
Sequence of Serine/threonine-protein kinase AKT (Homo sapiens) (P31751 whole entry, looked up): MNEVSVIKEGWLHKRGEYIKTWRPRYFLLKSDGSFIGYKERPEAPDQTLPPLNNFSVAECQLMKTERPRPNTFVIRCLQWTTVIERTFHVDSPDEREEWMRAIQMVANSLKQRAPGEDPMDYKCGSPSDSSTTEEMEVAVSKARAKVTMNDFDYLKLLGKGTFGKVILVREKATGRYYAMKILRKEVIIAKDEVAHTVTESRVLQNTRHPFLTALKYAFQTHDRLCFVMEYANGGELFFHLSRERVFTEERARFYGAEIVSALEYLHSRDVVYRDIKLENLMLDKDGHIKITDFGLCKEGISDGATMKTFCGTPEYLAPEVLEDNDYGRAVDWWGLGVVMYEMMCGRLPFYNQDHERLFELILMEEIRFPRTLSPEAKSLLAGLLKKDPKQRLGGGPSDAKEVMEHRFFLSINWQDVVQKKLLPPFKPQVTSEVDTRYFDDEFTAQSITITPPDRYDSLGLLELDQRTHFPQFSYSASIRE
Sequence of Serine/threonine-protein kinase AKT (Homo sapiens) (Q9Y243 whole entry, looked up): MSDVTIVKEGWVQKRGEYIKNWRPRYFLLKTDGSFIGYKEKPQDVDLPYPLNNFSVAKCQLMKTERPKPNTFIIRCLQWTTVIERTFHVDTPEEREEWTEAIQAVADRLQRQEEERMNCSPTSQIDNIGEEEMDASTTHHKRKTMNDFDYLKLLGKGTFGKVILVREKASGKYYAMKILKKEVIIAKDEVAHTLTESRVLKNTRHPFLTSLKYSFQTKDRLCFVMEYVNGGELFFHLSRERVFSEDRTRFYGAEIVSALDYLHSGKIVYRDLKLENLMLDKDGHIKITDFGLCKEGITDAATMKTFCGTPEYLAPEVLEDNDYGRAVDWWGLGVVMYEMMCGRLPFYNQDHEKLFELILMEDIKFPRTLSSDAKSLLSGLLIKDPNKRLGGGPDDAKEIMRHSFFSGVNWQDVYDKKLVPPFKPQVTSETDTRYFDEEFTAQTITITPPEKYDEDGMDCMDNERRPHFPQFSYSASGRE

`C=CC(=O)Nc1ccc(NC(=O)Nc2ccc(-c3cc(C)nc4noc(N)c34)cc2)cc1`: the 50% inhibitory concentration (IC50) with MOLM-13 is 507 nM; in the assay with MV4-11 [1] it was 325 nM; in the assay on A549, above 10000 nM. Further, the Activity is listed as 67.6% in the assay with MV4-11 [2], 1.5% in the assay on MV4-11 [4], 9.56% in the assay with MV4-11 [5] and 14.58% with MV4-11 [6]. The viability at 2.5 µM in the assay with MV4-11 [3] came to 53.9%. Moreover, the inhibition entry (in [7]; in [8]; with MV4-11 [9]) was “Dde” each time.
